Experimental data: ChEMBL document CHEMBL1201862, “PubChem BioAssay data set” (2004)
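Each compound was tested at five concentrations against cells in 96-well plates for 48 hours. At the GI50, growth is halved.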 Active and inactive are the calls of the source. No stated cut-off is given here; in the data, active = GI50 up to about 1.1 µM and inactive = higher.

Experiments:
Assay in all cases: DTP human tumour cell line panel, 48 h
TK-10 = tested on: TK-10
M14 = tested on: M14
K562 = tested on: K562
A549 = tested on: A549
U-251 = tested on: U-251
786-0 = tested on: 786-0
SK-MEL-5 = tested on: SK-MEL-5
OVCAR-8 = tested on: OVCAR-8
LOX IMVI = tested on: LOX IMVI
SF-268 = tested on: SF-268
PC-3 = tested on: PC-3
HL-60 = tested on: HL-60
COLO 205 = tested on: COLO 205
KM12 = tested on: KM12
SNB-75 = tested on: SNB-75
A498 = tested on: A498
CAKI-1 = tested on: CAKI-1
SNB-19 = tested on: SNB-19
UACC-62 = tested on: UACC-62
SF-295 = tested on: SF-295

| SMILES | GI50 (TK-10) | GI50 (M14) | GI50 (K562) | GI50 (A549) | GI50 (U-251) | GI50 (786-0) | GI50 (SK-MEL-5) | GI50 (OVCAR-8) | GI50 (LOX IMVI) | GI50 (SF-268) | GI50 (PC-3) | GI50 (HL-60) | GI50 (COLO 205) | GI50 (KM12) | GI50 (SNB-75) | GI50 (A498) | GI50 (CAKI-1) | GI50 (SNB-19) | GI50 (UACC-62) | GI50 (SF-295) |
| --- | --- | --- | --- | --- | --- | --- | --- | --- | --- | --- | --- | --- | --- | --- | --- | --- | --- | --- | --- | --- |
| CC(C)=CC[S+]([O-])c1ccccc1NC1=CC(=O)CC(C)(C)C1 (stereo not given) | > 100 µM (inactive) | > 100 µM (inactive) | > 100 µM (inactive) | > 100 µM (inactive) | 0.223 µM (active) | > 100 µM (inactive) | > 100 µM (inactive) | > 100 µM (inactive) | > 100 µM (inactive) | > 100 µM (inactive) | > 100 µM (inactive) | > 100 µM (inactive) | > 100 µM (inactive) | > 100 µM (inactive) | > 100 µM (inactive) | > 100 µM (inactive) | > 100 µM (inactive) | > 100 µM (inactive) | > 100 µM (inactive) |  |
| O=C1CC2(CCNCC2)C(=O)N1N1CCCCC1 | > 100 µM (inactive) | > 100 µM (inactive) | > 100 µM (inactive) | > 100 µM (inactive) | > 100 µM (inactive) | > 100 µM (inactive) | > 100 µM (inactive) | > 100 µM (inactive) | > 100 µM (inactive) | > 100 µM (inactive) | > 100 µM (inactive) | > 100 µM (inactive) | > 100 µM (inactive) | > 100 µM (inactive) | > 100 µM (inactive) | > 100 µM (inactive) | > 100 µM (inactive) | > 100 µM (inactive) | > 100 µM (inactive) | > 100 µM (inactive) |
| C[n+]1ccn2c3nc4ccccc4nc3c([O-])c(C#N)c21 | > 10 µM (inactive) | > 100 µM (inactive) | > 100 µM (inactive) | > 29.5 µM (inactive) | > 100 µM (inactive) | > 48.5 µM (inactive) | > 4.65 µM (inactive) | > 56.6 µM (inactive) | > 100 µM (inactive) | > 100 µM (inactive) | > 100 µM (inactive) | > 100 µM (inactive) | > 100 µM (inactive) | > 10 µM (inactive) | > 100 µM (inactive) | > 100 µM (inactive) | > 100 µM (inactive) | > 100 µM (inactive) | > 100 µM (inactive) | > 100 µM (inactive) |
| CC1OC(O)CC(N(C)C)C1O.CC1OC(O)CCC1O.CCC1CC(O)c2c(O)c3c(c(O)c2C1O)C(=O)c1cccc(O)c1C3=O (stereo not given) | 0.0208 µM (active) | 0.0188 µM (active) | 0.00597 µM (active) | 0.0313 µM (active) | 0.0211 µM (active) | 0.0124 µM (active) | 0.0177 µM (active) | 0.0211 µM (active) | 0.0135 µM (active) | 0.0335 µM (active) | 0.0177 µM (active) | 0.0305 µM (active) | 0.0209 µM (active) | 0.0209 µM (active) | 0.0136 µM (active) | 0.0114 µM (active) | 0.0156 µM (active) | 0.0301 µM (active) | 0.0197 µM (active) | 0.0323 µM (active) |
| COc1c2occc2c(N)c2ccc(=O)oc12 | > 100 µM (inactive) | > 100 µM (inactive) | > 100 µM (inactive) | > 100 µM (inactive) | > 100 µM (inactive) | > 100 µM (inactive) | 35 µM (inactive) | > 100 µM (inactive) | > 100 µM (inactive) | > 100 µM (inactive) | > 100 µM (inactive) | 49.2 µM (inactive) | > 100 µM (inactive) | > 100 µM (inactive) | 17.2 µM (inactive) | > 100 µM (inactive) | > 100 µM (inactive) | > 100 µM (inactive) | 41.6 µM (inactive) | > 100 µM (inactive) |
| CC1CC2=C(C1)C(C1(C)C(=O)CC3C(C1=O)C3(C)C)C(C)C2=O (stereo not given) | > 100 µM (inactive) | > 100 µM (inactive) | > 100 µM (inactive) | > 100 µM (inactive) | > 100 µM (inactive) | > 100 µM (inactive) | > 100 µM (inactive) | > 100 µM (inactive) | > 100 µM (inactive) | > 100 µM (inactive) | > 100 µM (inactive) | > 100 µM (inactive) | > 100 µM (inactive) | > 100 µM (inactive) | > 100 µM (inactive) | > 100 µM (inactive) | > 100 µM (inactive) | > 100 µM (inactive) | > 100 µM (inactive) | > 100 µM (inactive) |
| COc1ccc2nc3cccc([N+](=O)[O-])c3c(NCCO)c2c1 | 0.0336 µM (active) | 0.00762 µM (active) | 0.00199 µM (active) | 0.0198 µM (active) | 0.0211 µM (active) | 0.0112 µM (active) | 0.0188 µM (active) | 0.0083 µM (active) | 0.00149 µM (active) | 0.0157 µM (active) | 0.0232 µM (active) | 0.0148 µM (active) | 0.00527 µM (active) | 0.0255 µM (active) | 0.0942 µM (active) | 0.0507 µM (active) | 0.0183 µM (active) | 0.0486 µM (active) | 0.0182 µM (active) | 0.0684 µM (active) |
| O=C(CCCN1CCC2(CC1)OC(=O)N(c1ccccc1)C2=O)c1ccccc1 | > 100 µM (inactive) | > 100 µM (inactive) | > 100 µM (inactive) | > 100 µM (inactive) | > 100 µM (inactive) | > 100 µM (inactive) | > 100 µM (inactive) | > 100 µM (inactive) | > 100 µM (inactive) | > 100 µM (inactive) | > 100 µM (inactive) | > 100 µM (inactive) | > 100 µM (inactive) | > 100 µM (inactive) | > 100 µM (inactive) | > 100 µM (inactive) | > 100 µM (inactive) | > 100 µM (inactive) | > 100 µM (inactive) | > 100 µM (inactive) |
| CC(=O)OCC1(CNc2nc(N)ncc2C#N)CC(CCc2ccccc2)C1 (stereo not given) | > 10 µM (inactive) |  | 2.2 µM (inactive) | 15.5 µM (inactive) | 31.3 µM (inactive) | 40.4 µM (inactive) | 1.62 µM (inactive) | 50.2 µM (inactive) | 4.58 µM (inactive) | > 100 µM (inactive) | > 100 µM (inactive) | 3.66 µM (inactive) | 75.3 µM (inactive) | > 100 µM (inactive) | 27.4 µM (inactive) | 21.9 µM (inactive) | 4 µM (inactive) |  | 46 µM (inactive) | 7.66 µM (inactive) |
| COc1ccc(-c2c(C#N)c(N)n(C3OCC(O)C(O)C3O)c(=S)c2C#N)cc1 (stereo not given) | > 100 µM (inactive) | > 100 µM (inactive) | > 100 µM (inactive) | > 100 µM (inactive) |  | > 100 µM (inactive) | > 100 µM (inactive) | > 100 µM (inactive) | > 100 µM (inactive) | > 100 µM (inactive) | > 100 µM (inactive) | > 100 µM (inactive) |  | > 100 µM (inactive) | > 100 µM (inactive) | > 100 µM (inactive) | > 100 µM (inactive) | > 100 µM (inactive) | > 100 µM (inactive) | > 100 µM (inactive) |
